From US20030215462A1, “Use of UGT inhibitors to increase bioavailability” (priority 2001, published 2003)
“And” between values parts separate entries of the source, which are not always exact repeats. Equal entries are not always repeated. Where two headings read alike, the source gives them in different places.

Experiments:
Format in all cases: biochemical
[1] = target: T1, UGT enzymes of human liver microsomes (Homo sapiens, UniProt P16662); assay: Inhibition of zidovudine glucuronidation in human liver microsomes; conditions: liver lot 062101
T1 construct: residual metabolism (percentage of control), zidovudine glucuronidation; other: liver lot 062101; residual metabolism (percentage of control), zidovudine glucuronidation; residual metabolism (percentage of control)
T1 sequence (P16662 1-529): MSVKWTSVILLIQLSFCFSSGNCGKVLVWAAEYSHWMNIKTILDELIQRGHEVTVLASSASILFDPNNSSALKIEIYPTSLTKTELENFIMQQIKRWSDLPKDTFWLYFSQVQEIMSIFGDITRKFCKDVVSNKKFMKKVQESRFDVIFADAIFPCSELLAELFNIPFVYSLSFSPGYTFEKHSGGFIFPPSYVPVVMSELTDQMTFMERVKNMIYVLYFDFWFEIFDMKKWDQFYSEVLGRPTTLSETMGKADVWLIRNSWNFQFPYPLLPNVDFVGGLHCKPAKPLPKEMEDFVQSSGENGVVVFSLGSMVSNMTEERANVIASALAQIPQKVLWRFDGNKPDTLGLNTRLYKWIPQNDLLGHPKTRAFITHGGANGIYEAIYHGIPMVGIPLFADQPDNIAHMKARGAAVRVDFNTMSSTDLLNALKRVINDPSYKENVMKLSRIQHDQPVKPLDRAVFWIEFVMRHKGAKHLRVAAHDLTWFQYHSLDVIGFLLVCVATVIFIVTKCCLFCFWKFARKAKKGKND
Experimental: Compounds were eluted using a binary solvent gradient system where solvent A was dilute phosphoric acid (pH 3) and solvent B was acetonitrile.
Standardized incubations utilized 500 μM zidovudine substrate, 1 mg/ml microsomal protein, 5 mM UDPGA and a 30 min incubation time. […] Int.

[2] = tested on: UGT enzymes of human liver microsomes; assay: Inhibition of raloxifene glucuronidation (G1, G2) in human liver microsomes
Excerpt: Compounds were eluted using a binary solvent gradient system. […] Solvent B was methanol. […] Detection was at 280 nm.

[3] = tested on: T2, UGT enzymes of human liver microsomes; assay: Inhibition of 7-HFC glucuronidation in human liver microsomes; conditions: for % of control metabolism (SD, n = 3), 7-HFC glucuronidation: 7-HFC 50 μM, human liver microsomes 100 μg/ml, 15 min
T2 construct: percentage of control metabolism, 7-HFC glucuronidation; percentage of control metabolism, 7-HFC glucuronidation

[4] = tested on: T3, UGT enzymes of human liver microsomes; assay: Inhibition of labetalol glucuronidation (LG1, LG2) in human liver microsomes; conditions: labetalol 50 μM; inhibitor 100 μM
T3 construct: residual metabolism (percentage of control), labetalol LG1; other: labetalol 50 μM; residual metabolism (percentage of control), labetalol LG1; residual metabolism (percentage of control), labetalol LG2; inhi
Experimental: Supernatants were analyzed by HPLC with fluorescence detection.
Compounds were eluted using a binary solvent gradient system where solvent A was 5:5:90 tetrahydrofuran-acetonitrile-(NH4)2HPO4 50 mM, while solvent B was 25:25:50 tetrahydrofuran-acetonitrile-(NH4)2HPO4 50 mM. Solvent flow rate was 0.75 ml/min and the column temperature was ambient. […] Labetalol and metabolites were measured by fluorescence detection using a Jasco model FP920 detector. Excitation and emission wavelengths were 370 nm 418 nm respectively. Retention times for salicylamide internal standard and labetalol were 6.6 min and 15.0 min respectively.

[5] = tested on: UGT enzymes of pooled human jejunum microsomes; assay: Inhibition of 2ME2 glucuronidation (MG1) in pooled human jejunum microsomes; conditions: jejunum HJ61, 2ME2 50 μM
Excerpt: (§1) Compounds were eluted using a binary solvent gradient system where solvent A was dilute phosphoric acid (pH 3) and solvent B was 80:20 acetonitrile-methanol. […] Detection was at 280 nm.

[6] = tested on: T4, UGT enzymes of human liver microsomes; assay: Inhibition of 2ME2 glucuronidation (MG1, MG2) in human liver microsomes; conditions: liver 062101, 2ME2 50 μM
T4 construct: other: liver 062101
Excerpt: as §1

[7] = G1, inhibitor 100 μM, raloxifene 50 μM, human liver microsomes 250 μg/ml, 15 min
[8] = G1, inhibitor 500 μM, raloxifene 50 μM, human liver microsomes 250 μg/ml, 15 min
[9] = G2, inhibitor 100 μM, raloxifene 50 μM, human liver microsomes 250 μg/ml, 15 min
[10] = G2, inhibitor 500 μM, raloxifene 50 μM, human liver microsomes 250 μg/ml, 15 min

SMILES	residual metabolism (percentage of control), zidovudine glucuronidation ([1]; inhibitor 500 μM)	residual metabolism (percentage of control), zidovudine glucuronidation ([1]; inhibitor 1000 μM)	% of control metabolism (SD, n = 3), raloxifene glucuronide G1 [2, 7]	% of control metabolism (SD, n = 3), raloxifene glucuronide G1 [2, 8]	% of control metabolism (SD, n = 3), raloxifene glucuronide G2 [2, 9]	% of control metabolism (SD, n = 3), raloxifene glucuronide G2 [2, 10]	percentage of control metabolism, 7-HFC glucuronidation ([3]; inhibitor 100 μM)	% of control metabolism (SD, n = 3), 7-HFC glucuronidation ([3]; inhibitor 100 μM)	percentage of control metabolism, 7-HFC glucuronidation ([3]; inhibitor 200 μM)	% of control metabolism (SD, n = 3), 7-HFC glucuronidation ([3]; inhibitor 200 μM)	percentage of control metabolism, 7-HFC glucuronidation ([3]; inhibitor 500 μM)	% of control metabolism (SD, n = 3), 7-HFC glucuronidation ([3]; inhibitor 500 μM)	residual metabolism (percentage of control), zidovudine glucuronidation ([1]; inhibitor 200 μM)	also measured
COc1cc(CNC(=O)CCCC/C=C/C(C)C)ccc1O [Capsaicin]	57 (4) %	34 (1) %	55 (4) %	26 (1) %	69 (4) %	33 (3) %	53 (1) % and 57 (0) %	53 (1), % and 57 (0) %	42 (1) % and 44 (1) %	42 (1), % and 44 (1) %	39 (0) %	39 (0) %	–	percentage of control metabolism, 7-HFC glucuronidation ([3]; inhibitor 50 μM): 69 (1) %; % of control metabolism (SD, n = 3), 7-HFC glucuronidation ([3]; inhibitor 50 μM): 69 (1) %
Cc1ccc(C(C)C)cc1O [Carvacrol]	50 (3) % and 45 (0) %	20 (1) %	–	–	–	–	79 (1) %	79 (1) %	63 (0) %	63 (0) %	31 (1) %	31 (1) %	75 (3) %	residual metabolism (percentage of control), zidovudine glucuronidation ([1]; inhibitor 100 μM): 94 (1) %; % of control metabolism (SD, n = 3), raloxifene glucuronide G1 [2]: 37 (1) % and 64 (1) %; % of control metabolism (SD, n = 3), raloxifene glucuronide G2 [2]: 33 (0) % and 60 (1) %
COc1cc(CNC(=O)CCCCCCC(C)C)ccc1O [Dihydrocapsaicin]	50 (1) %	42 (2) %	49 (1) %	18 (1) %	68 (2) %	26 (1) %	60 (3) %	60 (3) %	52 (2) %	52 (2) %	42 (2) %	42 (2) %	–	–
C[C@]12CC[C@@H]3c4ccc(O)cc4CC[C@H]3[C@@H]1CC[C@@H]2O [E2, 17-β-estradiol, reference compound]	29 (1) % and 24 (2) %	–	–	39 (1) %	–	56 (2) %	–	–	–	–	–	80 (2) %	24 (0) %	residual metabolism (percentage of control), zidovudine glucuronidation ([1]; inhibitor 50 μM): 50 (1) %; residual metabolism (percentage of control), zidovudine glucuronidation ([1]; inhibitor 100 μM): 28 (1) %
Oc1cc(O)c2c(c1)O[C@H](c1cc(O)c(O)c(O)c1)[C@H](O)C2 [Epigallocatechin]	90 (3) %	–	–	65 (4) %	–	79 (4) %	–	77 (1) %	–	90 (1) %	–	81 (4) %	–	residual metabolism (percentage of control), labetalol LG1 [4]: 96 (7) %; residual metabolism (percentage of control), labetalol LG2 [4]: 87 (5) %
CCCCC/C=C\C/C=C\CCCCCCCC(=O)O [Linoleic acid]	68 (5) %	–	101 (8) %	29 (0) %	100 (4) %	–	86 (3) %	86 (3) %	77 (4) %	77 (4) %	33 (1) %	33 (1) %	–	–
CCCCCCCCC(=O)NCc1ccc(O)c(OC)c1 [N-Vanillylnonanamide]	67 (1) %	40 (1) %	48 (1) %	14 (1) %	62 (1) %	17 (2) %	69 (1) %	69 (1) %	63 (2) %	63 (2) %	48 (1) %	48 (1) %	–	–
O=C1C[C@@H](c2ccc(O)cc2)Oc2cc(O)cc(O)c21 [Naringenin]	48 (7) % and 34 (4) %	15 (3) %	34 (2) %	–	40 (2) %	–	–	–	–	–	–	63 (1) %	64 (3) %	residual metabolism (% of control), 2ME2 MG1 ([5]; inhibitor 50 μM): 78 (2) %; residual metabolism (% of control), 2ME2 MG1 ([5]; inhibitor 100 μM): 79 (5) %; % of control metabolism (SD, n = 3), raloxifene glucuronide G1 ([2]; G1, inhibitor 50 μM, raloxifene 50 μM, human liver microsomes 250 μg/ml, 15 min): 54 (4) %; % of control metabolism (SD, n = 3), raloxifene glucuronide G2 ([2]; G2, inhibitor 50 μM, raloxifene 50 μM, human liver microsomes 250 μg/ml, 15 min): 71 (9) %; residual metabolism (% of control), 2ME2 MG1 ([6]; inhibitor 25 μM): 76 (1) %; residual metabolism (% of control), 2ME2 MG2 ([6]; inhibitor 25 μM): 53 (4) %; residual metabolism (% of control), 2ME2 MG1 ([6]; inhibitor 50 μM): 47 (3) %; residual metabolism (% of control), 2ME2 MG2 ([6]; inhibitor 50 μM): 26 (5) %; residual metabolism (% of control), 2ME2 MG1 ([6]; inhibitor 100 μM): 21 (4) %; residual metabolism (% of control), 2ME2 MG2 ([6]; inhibitor 100 μM): 19 (0) %
